Experiment [1] concerns HCT116 cells. The experiment in a line: Acridine orange/Ethidium bromide (AO/EB) staining. Type of experiment: cell-based, human. Conditions: HCT116, 48 h, mean ± SEM of 100 cells. As for the experimental part: AO/EB dual staining was performed in order to determine the apoptosis inducing potential of the selected test compounds in HCT116 cell line with few modifications (Kumar et al., 2016[9]). In brief, 5 × 10^5 cells were seeded in 6 wells plate containing 2 ml of medium and incubated for 24 h. After 24 h, cells were treated with the test compounds and incubated for 48 h. After 48 h of incubation, the wells were washed with phosphate buffer saline (PBS) and cells were fixed with ice cold ethanol (70 %) for 30 min. Ethanol was then removed and cells were washed again with PBS followed by the addition of 200 µl of AO/EB (20/30 µg/ml) stain in each well. The plate was later kept in the dark for 20 min. The excess stain was further washed thrice with PBS and observed for their fluorescence under a fluorescent microscope (Eclipse TS100-F, Nikon Instruments Inc., Melville, NY, USA).

Experiment [2] relates to DMH induced colorectal carcinoma. The experiment in a line: DMH (1,2-dimethyl hydrazine) induced colon cancer in Wistar rats. Conditions: test compounds 100 mg/kg p.o., 5-FU 10 mg/kg i.p., 21 days; for TNF-α level in colon homogenate: ELISA, DMH control 20.2 ± 0.8, normal control 0.8 ± 0.1; for No. of ACF/5 cm^2: colon tissue, DMH control 81.6 ± 1.4; for No. of ACF/5 cm^2 / No. of adenocarcinoma: mean ± SEM, n=6; for No. of adenocarcinoma: entire colon, DMH control 15 ± 1.2. The experiment is classed as in vivo. The procedure: Test compound: Three test compounds, namely C1, C2 & C3 were suspended in 0.25 % sodium carboxy methyl cellulose (CMC) and were administered orally (p.o) with a dosing volume of 10 ml/kg.
Standard drug: 5-Fluorouracil (5-FU) was used as standard. It was procured in the form of injection and administered intraperitoneally (i.p) with a dosing volume of 10 ml/kg.
Induction of colon cancer was achieved using DMH according to a previously described procedure with few modifications (Perše and Cerar, 2005[15]). DMH at a dose of 30 mg/kg was administered i.p once a week for 20 weeks. The incidence of aberrant crypt foci (ACFs) and adenocarcinoma were confirmed by sacrificing a few of the animals after 20 weeks confirming the induction of colon cancer in experimental animals. Finally, the animals were randomized into five experimental groups based on their body weight.
Group 1 (normal control): Animals (n=6) were administered 0.25 % CMC in water p.o.
Group 2 (DMH control): Animals (n=6) were administered DMH
Group 3 (standard drug): Animals (n=6) received 5-FU 10 mg/kg i.p. for 21 days of study period
Group 4 (C1): Animals (n=6) received C1 at 100 mg/kg p.o for 21 days
Group 5 (C2): Animals (n=6) received C2 at 100 mg/kg p.o. for 21 days.
Group 6 (C3): Animals (n=6) received C3 at 100 mg/kg p.o. for 21 days.
The distal part of the colon, which was removed from the experimental animals after the study period was cut open and placed flat on a filter paper and fixed with 10 % buffered formalin for 12 h. Further, it was stained with 0.1 % methylene blue in PBS for 5 min. Specimens were later observed under microscope for ACF formation and were calculated as the number of counts/5 cm^2 in colon tissue. The entire colon was considered to study the incidence of adenocarcinoma. The growth was critically observed and the count and size were noted from each animal.
The levels of TNF-α were estimated in the colon of experimental animals, for which 10 % homogenate of colon tissue was prepared in tissue lysis buffer. The homogenate was centrifuged and the supernatant was collected to measure TNF-α levels using commercially available ELISA kits of rat TNF-α (# KRC3011, Invitrogen).
Length of the isolated colon was measured in centimeters and weight was measured in g. The colon length/weight (L/W) ratio was then calculated. Isolated spleen, kidney and heart of the experimental animals were also weighed in g and respective index was calculated.
Histopathology was carried out according to the described procedure (Reddy et al., 2015[18]). The stained slides were then analyzed under a microscope for any anatomical changes.
All the values were expressed as mean ± SEM of 6 animals. Data were analyzed using one-way ANOVA followed by Tukey's multiple comparison tests using Prism 5.03 (Graph Pad Software Inc., La Jolla, CA, USA). Values of p < 0.05 were considered to be significant.
On the technique in general: In an ELISA, binding on a coated surface is turned into a signal by an enzyme label.

The subject of experiment [3] is HCT116 cells. Description: Annexin V assay (Muse Cell Analyzer). Type of experiment: cell-based, human. Conditions: HCT116, 48 h; 5-FU 20 μM, C1 25 μM, C2 70 μM, C3 70 μM. As for the experimental part: Apoptosis determination by Annexin V staining was carried out using Muse Cell Analyzer with the kit provided by the manufacturer Merck Millipore. In brief, 1 × 10^6 cells were seeded in 60 mm tissue culture dish and after overnight adherence test compounds were added and incubated. After 48 h the cells were detached by trypsinization, centrifuged and resuspended. 100 µl of cell suspension was added with 100 µl of Annexin V reagent and incubated for 20 min at room temperature following which the cells were analyzed for apoptosis.

Experiment [4] concerns histone deacetylase (HDAC) enzyme. Description: Whole cell HDAC enzyme assay. The experiment is classed as cell-based, human. Conditions: HCT116 cells. As for the experimental part: HCT116 cells were harvested and seeded in 96 well sterile, black well plates at 2 × 10^4 cells/well and incubated overnight. Further, the cells were treated with different concentration of the test compounds for a period of 18 h. Then, 15 mM Boc-Lys(Ac)-AMC substrate (Sigma Aldrich # SCP0168) was added and incubated for 1 h. The reaction was terminated by the addition of 50 µL of stop solution (trypsin 2 mg/ml, 1 % NP40, […]) in HDAC assay buffer (25 mM Tris-HCl (pH 8.0), 137 mM NaCl, 2.7 mM KCl, 1 mM MgCl2). The reaction was then allowed to proceed for 15 min at 37 °C after which, the fluorescence was measured at 360 nm excitation and 460 nm emission using fluorescence micro plate reader (FLx800, BioTek Instruments Inc., Winooski, VT, USA) (Reddy et al., 2015[18]).

The subject of experiment [5] is Vero cells. Description: MTT cytotoxicity assay on Vero. The experiment is classed as cell-based, African green monkey. As to conditions: Chlorocebus sabaeus, 48 h exposure. As for the experimental part:
(§1) Human colorectal carcinoma (HCT116) and African green monkey kidney epithelial cells (VERO) were procured from the National Centre for Cell Science, Pune, MH, India. The cells were maintained in Dulbecco's Modified Eagle's Medium (DMEM) (Sigma-Aldrich Co. LLC, ST. Louis, Mo, USA) supplemented with 10 % Fetal Bovine Serum (FBS) (HiMedia Laboratories, Mumbai, India) and 1 × Penicillin/Streptomycin at 37 °C in CO2 incubator (NU-5501 E/G, NuAire Inc., Plymoth, MN, USA) in humidified atmosphere of 5 % CO2 and 95 % air. The cells were maintained by routine sub-culturing in 25 cm^2 tissue culture flasks.
(§2) Cytotoxic potential of the test compounds were assessed using MTT assay (Kumar et al., 2016[9]). In brief, HCT116 and Vero cells were harvested from confluent flask and seeded (5 × 10^4 cells/well) in 96 well plates. After 24 h of incubation, the cells were exposed to different concentration of the test compounds for 48 h. Further, 50 µl of MTT reagent (HiMedia Laboratories, Mumbai, India) (2 mg/ml in sterile PBS) was added into each well after 48 h and incubated for 3 more h. The formazan crystals formed were solubilized using 100 % DMSO and the optical density was measured at 540 nm using micro plate reader (ELx800, BioTek Instruments Inc., Winooski, VT, USA).

Experiment [6] has as its system HCT116 cells. The experiment in a line: Cell cycle analysis (propidium iodide, flow cytometry). Conditions: HCT116, 48 h treatment; for Cells in G2/M phase (M3): normal control 18.2 %. The experiment is classed as cell-based, human. As for the experimental part: The ability of the test compounds to arrest any phase of the cell cycle was determined using the described procedure (Reddy et al., 2015[18]). In this method, HCT116 cells were harvested and seeded at a density of 1 × 10^6 cell in 60 mm petri plate and incubated for 24 h. After 24 h cells were treated with test compounds for 48 h. Then the cells were washed with PBS, trypsinized and centrifuged. The cell pellets were later fixed in 70 % ice cold ethanol and stored at -20 °C for 24 h. After fixing, the pellet was dislodged in PBS and stained with propidium iodide solution. The cells were then analyzed using Accuri C6 flow cytometer with the threshold levels adjusted to remove the debris (BD Biosciences, San Jose, CA, USA) and data analysis were performed using BD Accuri™ C6 software.

The subject of experiment [7] is HCT116 cells. Description: MTT cytotoxicity assay on HCT116. The experiment is classed as cell-based. As to conditions: Homo sapiens. As for the experimental part:
as §1, §2
On the technique in general: Tetrazolium assays rely on reduction of a dye to a coloured formazan, in cell work by metabolically active cells.

[8] abbreviates: 18 h treatment, mean ± SEM, triplicate, read-out: IC50 whole cell HDAC enzyme inhibition.
[9] abbreviates: read-out: IC50 inhibition of HDAC (unit inferred).
The mark [10] stands for this setting: HCT-116, 48 h exposure, read-out: IC50 Value HCT116.
Setting [11] is: HCT-116, 48 h of treatment, read-out: IC50 value on HCT116 cells.

Like-named read-outs stand apart in the source and are kept apart here.

For `O=c1[nH]cc(F)c(=O)[nH]1` [5-FU, 5-Fluorouracil, reference compound], in experiment [1], the “% apoptotic cells (AO/EB staining)” value worked out at 45 ± 0.87%. For the same compound, in experiment [2], the “TNF-α level in colon homogenate” value was found to be 16.09 ± 1.9, the “No. of ACF/5 cm^2” value is listed as 42.3 ± 1.4 /5 cm^2 and the No. of adenocarcinoma came to 7 ± 0.5. Also, in experiment [3], the “Early Apop. (Annexin V)” value amounted to 15.86% and the “Total apoptotic cells (Annexin V)” value is 38.08 % of total cells.

As to `Cc1ccc(/C=C/C(=O)c2ccccc2O)cc1` [C1, 1-(2-Hydroxy-phenyl)-3-p-tolyl-propenone], the IC50 in experiment [4] (setting [8]) was 105 µM. Also, the IC50 in experiment [4] (setting [9]) is less than 500 µM. The “% apoptotic cells (AO/EB staining)” value in experiment [1] is listed as 42.4 ± 2.25%. The half-inhibitory concentration (IC50) in experiment [5] was found to be 26.3 µM. Moreover, in experiment [2], the “TNF-α level in colon homogenate” value was determined as 6.18 ± 2.5, the “No. of ACF/5 cm^2” value was 54.0 ± 0.5 /5 cm^2 and the No. of adenocarcinoma worked out at 10 ± 0.8. For the same compound, the “Cells in G2/M phase (M3)” value in experiment [6] is 25%. Besides, in experiment [3], the “Early Apop. (Annexin V)” value was 5.85% and the “Total apoptotic cells (Annexin V)” value is on record as 37.70 % of total cells.

Consider `O=C(/C=C/c1ccc(O)cc1)c1ccccc1O` [C2, 3-(4-Hydroxy-phenyl)-1-(2-hydroxy-phenyl)-propenone], for which the IC50 in experiment [4] (setting [8]) was 394 ± 12.9 µM; in experiment [4] (setting [9]), less than 500 µM; in experiment [5], 88.3 µM; in experiment [7] (setting [10]), 81.4 µM; in experiment [7] (setting [11]) it was less than 200 µM. The “% apoptotic cells (AO/EB staining)” value in experiment [1] worked out at 40 ± 2.5%. Besides, the “No. of ACF/5 cm^2” value in experiment [2] is 60.0 ± 1.1 /5 cm^2. Also, the “Cells in G2/M phase (M3)” value in experiment [6] is on record as 19.5%. The “Early Apop. (Annexin V)” value in experiment [3] is recorded as 18%. In addition, the “Total apoptotic cells (Annexin V)” value in experiment [3] is recorded as 36.60 % of total cells.

Consider `O=C(O)c1ccc(C=CC(=O)c2ccccc2O)cc1` [C3, 4-[3-(2-Hydroxy-phenyl)-3-oxo-propenyl]-benzoic acid], for which the IC50 in experiment [4] (setting [8]) is 929 ± 56.6 µM; in experiment [5], 178 µM; in experiment [7] (setting [10]), 117 µM; in experiment [7] (setting [11]), less than 200 µM. In experiment [1], the “% apoptotic cells (AO/EB staining)” value stood at 38.7 ± 0.94%. Moreover, in experiment [2], the “No. of ACF/5 cm^2” value is given as 73.6 ± 0.8 /5 cm^2. In addition, in experiment [6] (normal control 9.5 %), the “Cells in S phase (M2)” value was 12%. Moreover, in experiment [3], the “Total apoptotic cells (Annexin V)” value was 31.80 % of total cells.

Turning to `CN(C)c1ccc(/C=C/C(=O)c2ccccc2O)cc1` [C4, 3-(4-Dimethylamino-phenyl)-1-(2-hydroxy-phenyl)-propenone], the concentration for half-maximal inhibition (IC50) is 470 ± 11 µM in experiment [4] (setting [8]); less than 500 µM in experiment [4] (setting [9]); more than 500 µM in experiment [5]; more than 500 µM in experiment [7] (HCT-116, 48 h, 48 h exposure, read-out: IC50 Value HCT116).

Turning to `CN(C)c1ccc(/C=C/C(=O)c2ccc(O)cc2O)cc1` [C5], the IC50 is 160 ± 15.5 µM in experiment [4] (setting [8]) and less than 500 µM in experiment [4] (setting [9]).

On to `O=C(O)c1ccc(C=CC(=O)c2c(O)cccc2O)cc1` [C6, 4-[3-(2,6-Dihydroxy-phenyl)-3-oxo-propenyl]-benzoic acid], for which the IC50 in experiment [4] (setting [8]) is 826 ± 58.1 µM; in experiment [5], more than 500 µM; in experiment [7] (setting [10]), more than 500 µM.

In the case of `O=C(CCCCCCC(=O)Nc1ccccc1)NO` [SAHA, reference compound], in experiment [4] (setting [8]), the IC50 came to 3.6 ± 0.2 µM.

By IC50 is commonly meant the midpoint of a concentration-inhibition curve.

(Values after publication PMC5491917, “In vitro and in vivo anticancer studies of 2'-hydroxy chalcone derivatives exhibit apoptosis in colon cancer cells by HDAC inhibition and cell cycle arrest” (EXCLI Journal, 2017).)
